Reference: ChEMBL document CHEMBL5518244, “Design, Synthesis, and Biological Evaluation of a Novel NIK Inhibitor with Anti-Inflammatory and Hepatoprotective Effects for Sepsis Treatment” (J Med Chem, 2024)
The source made the active and inactive calls. The calls are words filed in the database; no cut-off is given here.

Key:
[1] = molecular target: T1, Mitogen-activated protein kinase kinase kinase 14 (Homo sapiens, UniProt Q99558); assay: Inhibition of NIK (unknown origin) expressed in COS-7 cells co-expressing NF-KappaB luciferase reporter assessed as suppression of luciferase reporter at 1 uM measured after 24 by beta-Gal activity assay; format: cell-based
Target sequence in this assay (Q99558 whole entry, looked up): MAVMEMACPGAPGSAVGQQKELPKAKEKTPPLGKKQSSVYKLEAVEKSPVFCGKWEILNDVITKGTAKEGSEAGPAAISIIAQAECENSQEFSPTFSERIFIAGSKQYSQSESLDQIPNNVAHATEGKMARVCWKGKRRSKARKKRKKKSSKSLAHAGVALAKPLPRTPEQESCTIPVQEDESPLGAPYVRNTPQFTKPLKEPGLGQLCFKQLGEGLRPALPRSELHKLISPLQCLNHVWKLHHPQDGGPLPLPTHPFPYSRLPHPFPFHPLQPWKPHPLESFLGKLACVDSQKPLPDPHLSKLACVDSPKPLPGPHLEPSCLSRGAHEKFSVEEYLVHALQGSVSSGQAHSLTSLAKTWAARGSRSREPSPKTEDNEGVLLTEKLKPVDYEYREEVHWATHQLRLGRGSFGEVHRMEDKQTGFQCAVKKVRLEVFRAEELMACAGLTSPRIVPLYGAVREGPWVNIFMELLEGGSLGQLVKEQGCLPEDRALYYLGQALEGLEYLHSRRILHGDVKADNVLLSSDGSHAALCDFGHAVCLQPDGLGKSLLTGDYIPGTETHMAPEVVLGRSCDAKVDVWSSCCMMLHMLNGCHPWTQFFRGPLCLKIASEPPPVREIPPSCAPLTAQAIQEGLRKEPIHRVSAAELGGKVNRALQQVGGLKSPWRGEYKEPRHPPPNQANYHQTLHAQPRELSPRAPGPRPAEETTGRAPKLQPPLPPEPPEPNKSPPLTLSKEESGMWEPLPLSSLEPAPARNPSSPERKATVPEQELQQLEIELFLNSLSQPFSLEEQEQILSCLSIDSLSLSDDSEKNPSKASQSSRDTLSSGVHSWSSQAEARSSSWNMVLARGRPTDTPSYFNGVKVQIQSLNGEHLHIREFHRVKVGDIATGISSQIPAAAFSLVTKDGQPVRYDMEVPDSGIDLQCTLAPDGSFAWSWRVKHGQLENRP

[2] = molecular target: T1, Mitogen-activated protein kinase kinase kinase 14; assay: Inhibition of NIK (unknown origin) expressed in COS-7 cells co-expressing NF-KappaB luciferase reporter assessed as suppression of luciferase reporter measured after 24 by beta-Gal activity assay; format: cell-based
Target sequence in this assay (Q99558 whole entry): as the sequence (Q99558 whole entry, looked up) above

[3] = molecular target: T1, Mitogen-activated protein kinase kinase kinase 14; assay: Inhibition of NIK (unknown origin) expressed in COS-7 cells co-expressing NF-KappaB luciferase reporter assessed as suppression of luciferase reporter at 5 uM measured after 24 by beta-Gal activity assay; format: cell-based
Target sequence in this assay (Q99558 whole entry, looked up): as above

[4] = test system: Macrophage; assay: Anti-inflammatory activity in mouse macrophages extracted from abdominal activity assessed as inhibition of LPS-induced nitric oxide production at 1 uM measured after 22 hrs by Griess reagent assay relative to control; format: functional, cell-based
[5] = molecular target: T1, Mitogen-activated protein kinase kinase kinase 14; assay: Inhibition of NIK (unknown origin) incubated 30 to 60 mins by ADP-Glo Kinase
Target sequence in this assay (Q99558 whole entry): as the sequence (Q99558 whole entry, looked up) above

SMILES	inhibition [1]	IC50 [2] [nM]	inhibition [3]	IC50 [4] [nM]	IC50 [5] [nM]
CC(O)(C#Cc1cc2n(n1)CCCN2c1ccnc(NC23CC(C2)C3)n1)c1nccs1 (configuration not stated)	Active	1510	Active	16500	5.39
CC(O)(C#Cc1ccc2c(c1)N(c1nc(N)ncc1Cl)CC2)c1nccs1 (configuration not stated)	–	910	–	58600	2.68
CC(O)(C#Cc1cc2n(n1)CCCN2c1ccnc(Nc2ccccc2)n1)c1nccs1 (configuration not stated)	Active	2170	Active	59400	4.76
CC(O)(C#Cc1cc2n(n1)CCCN2c1ccnc(Nc2cccc(C#N)c2)n1)c1nccs1 (configuration not stated)	Active	3560	Active	64100	5.01
CC(O)(C#Cc1cc2n(n1)CCCN2c1ccnc(Nc2ccc3c(c2)OCO3)n1)c1nccs1 (configuration not stated)	Active	1410	Active	80300	2.85
COc1cccc(Nc2nccc(N3CCCn4nc(C#CC(C)(O)c5nccs5)cc43)n2)n1 (configuration not stated)	–	–	–	–	4.43
CC(O)(C#Cc1cc2n(n1)CCCN2c1ccnc(Nc2cccc(C(F)(F)F)n2)n1)c1nccs1 (configuration not stated)	–	–	–	–	16.6
CN(C)c1cccc(Nc2nccc(N3CCCn4nc(C#CC(C)(O)c5nccs5)cc43)n2)c1 (configuration not stated)	Active	2230	Active	76800	7.76
CC(O)(C#Cc1cc2n(n1)CCCN2c1ccnc(Nc2cccc(N3CCOCC3)n2)n1)c1nccs1 (configuration not stated)	Active	2430	Active	17200	9.8
CC(O)(C#Cc1cc2n(n1)CCCN2c1ccnc(Nc2ccc(F)cc2)n1)c1nccs1 (configuration not stated)	–	–	–	–	6.17
CC(C)(O)C#Cc1cc2n(n1)CCCN2c1ccnc(Nc2ccc3c(c2)OCO3)n1	–	–	–	–	22.7
CC(O)(C#Cc1cc2n(n1)CCCN2c1ccnc(Nc2ccc(Cl)cc2)n1)c1nccs1 (configuration not stated)	–	–	–	–	6.46
CC(O)(C#Cc1cc2n(n1)CCCN2c1cccc(Nc2ccccc2)n1)c1nccs1 (configuration not stated)	–	–	–	–	> 500
CC(O)(C#Cc1cc2n(n1)CCCN2c1ccnc(Nc2ccc3c(c2)OCO3)n1)c1ccccc1 (configuration not stated)	–	–	–	–	29.1
CN(C)c1cccc(Nc2nccc(N3CCCn4nc(C#CC(C)(O)c5nccs5)cc43)n2)n1 (configuration not stated)	–	–	–	–	13
CC(O)(C#Cc1cc2n(n1)CCCN2c1nc(N)ncc1Cl)c1nccs1 (configuration not stated)	–	–	–	–	70.8
COc1cccc(Nc2nccc(N3CCCn4nc(C#CC(C)(O)c5nccs5)cc43)n2)c1 (configuration not stated)	Active	1330	Active	45900	5.77
